Laboratory results as given in patent publication EP0603240B1, “SAFENING HERBICIDAL PYRAZOLYLSULFONYLUREAS” (priority 1991, dated 1993).
Where two headings read alike, the source gives them in different places.

Legend:
Assay type in all cases: in vivo
corn [1] = assay: Example 22: retest of Example 21 at reduced greenhouse temperatures; settings: Table 22
Description: (§1) Containers were filled and compacted with a fumigated silt loam top soil to a depth of about 1.3 cm from the top of the container. A first container was designated as an untreated control, a second container was designated as a herbicide control, and a third container was designated as a herbicide + antidote test container. Each of the containers was seeded with a crop species. A measured amount of herbicide dispersed or dissolved in acetone was applied to a measured quantity of soil. To this same quantity of soil treated with herbicide, there was added a measured amount of antidote dispersed or dissolved in acetone. The quantity of soil treated with the herbicide and antidote was thoroughly mixed to incorporate the herbicide and antidote in the soil uniformly. The seed bed in the third container of soil was covered with the soil treated with the herbicide and antidote and the container was leveled. For each test series, the seed beds of the first and second containers were likewise covered by soil layers. the cover layer of the first container was not treated with herbicide or antidote.
(§2) The containers were then placed on a bench in a greenhouse and sub-irrigated as required for the duration of the test. […] Plant response is measured in terms of percent injury. Antidote efficacy is indicated as the difference in plant injury by the herbicide(s) without the antidote and with the antidote.
(§3) This procedure is the same as Procedure I, but modified in the manner that after incorporation of the chemicals (herbicide and antidote) the containers with the covered seedbed were treated with an initial overhead irrigation equivalent to 0.6 cm rainfall, then subsequently sub-irrigated as required on greenhouse benches.
In this example, tests were conducted as in the preceding Examples 18-20, except here the co-herbicidal component was SUTAN® PLUS, a commercial product comprising as the active herbicidal ingredient the compound butylate (Herbicide No. 10) and an antidote […] (Antidote No. 1). Again, the antidotal compounds herein were Nos. 1, 2, 7, 13 and 15. Procedure II was used.
The experiments in this example were designed as a retest of those described in Example 21 in view of the uncharacteristically poor corn safety and weed control, believed to have resulted from unseasonably high temperatures in the greenhouse. Accordingly, temperatures were reduced for these tests.

[2] = test system: velvetleaf (Abutilon theophrasti); assay: Example 23, Procedure II: Antidote Nos. 15 and 17-21 against Herbicide No. 1, 13 days after application; settings: Abutilon theophrasti, 312 h
Description: as §1, §2, §3
(§4) In other greenhouse tests, using Procedure II described above, the safening efficacy of Antidote Nos. 15 and 17-21 was evaluated against Herbicide No. 1 in corn in the presence of Giant foxtail (Setaria fabergi) and Velvetleaf (Abutilon theophrasti) as representative annual monocotyledonous and dicotyledonous weeds, respectively.
(§5) Test results are shown in Tables 23A and 23B wherein the indicated plant inhibition represents the average of duplicate replications, with observations being made thirteen (13) days after application of the chemicals. Giant foxtail and Velvetleaf are represented by the symbols "GFT" and "VL", respectively. The data in Table 23A show the test results using the antidotes at 2.24 kg/ha, whereas in Table 23B, the antidotal rate was reduced to 0.56 kg/ha.

[3] = test system: Giant foxtail (Setaria fabergi); assay: as above; settings: Setaria, 312 h
Description: as §1, §2, §3, §4, §5

corn [4] = assay: as above; settings: Zea mays, 312 h, no antidote, 13 days after application; for inhibition at 140 g/ha: Herb. No. 1 0.14 Kg/Ha; for inhibition at 280 g/ha: Herb. No. 1 0.28 Kg/Ha; for inhibition at 560 g/ha: Herb. No. 1 0.56 Kg/Ha; for inhibition at 1120 g/ha: Herb. No. 1 1.12 Kg/Ha
Description: as §1, §2, §3, §4, §5

corn [5] = assay: Example 7, Procedure II: Herbicide No. 1 + metolachlor (No. 12) with antidotes
Description: as §1, §2, §3
In this example, Procedure II described above was followed. The data from the tests in this example is shown in Table 6 and represents averages of duplicate replications.
The tests in this example followed the same procedure and antidotes used in Example 6. However, Herbicide No. 12 (metolachlor) was used as the co-herbicide with Herbicide No. 1.

[6] = test system: barnyardgrass (Echinochloa crusgalli); assay: as above
Summary of the method: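 Herbicide and antidote in acetone were mixed into silt loam soil used to cover seeded beds, followed by 0.6 cm overhead irrigation, then sub-irrigation in the greenhouse. Percent injury was scored against herbicide-alone and untreated controls, averaged over duplicates. Herbicide No. 1 was combined with metolachlor.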

[7] = test system: barnyardgrass (Echinochloa crusgalli); assay: Example 18, Procedure II: Herbicide No. 1 + ERADICANE (EPTC + R-25788) with auxiliary antidotes
Description: as §1, §2, §3
(§6) In the series of greenhouse tests described below, for routine screening purposes the herbicide/antidote compositions were tested in crop/weed combinations involving corn as the crop and either or both of the weeds barnyardgrass (Echinochloa crusgalli), a monocotyledonous weed, and velvetleaf (Abutilon theophrasti), a dicotyledonous weed. In the tables below, these weeds are indicated by the symbols "BYG" and "VL", respectively.
(§7) In the test reported in this example, the herbicidal composition was similar to that used in Example 16 in that Herbicide No. 1 was combined with EPTC (Herbicide No. 4) as a co-herbicide and the antidotes included Nos. 1, 2, 7, 13 and 15. However, in this test the EPTC was introduced as a formulation of ERADICANE (EPTC + the antidote R-25788, i.e., Antidote No. 1) at an application rate of 8.96 kg/ha. Thus, in this test two antidotes were present, viz. R-25788 and one of the auxilliary antidotes, No. 2, 13 and 15.
(§8) Test procedures were those of Procedure II above.

[8] = test system: velvetleaf (Abutilon theophrasti); assay: as above
Description: as §1, §2, §3, §6, §7, §8

[9] = read-out: % Inhibition Corn, Table 23A
[10] = read-out: % Inhibition Corn, Table 23B
[11] = Herbicide No.1 0.14 + No.12 3.36 kg/ha, no antidote
[12] = Herbicide No.1 0.14 + No.12 3.36 kg/ha, no antidote (second such line, r25)
[13] = Herbicide No.1 0.56 + No.12 3.36 kg/ha, no antidote (second such line, r24)
[14] = Herbicide No.1 0.56 + No.12 (metolachlor) 3.36 kg/ha, no antidote
[15] = Herbicide No.1 0.56 kg/ha + ERADICANE 8.96 kg/ha, antidote 2.24 kg/ha
[16] = Herbicide No.1 0.56 kg/ha + ERADICANE 8.96 kg/ha, antidote 8.96 kg/ha
[17] = Herbicide No.1 1.12 kg/ha + ERADICANE 8.96 kg/ha, antidote 2.24 kg/ha
[18] = Herbicide No.1 1.12 kg/ha + ERADICANE 8.96 kg/ha, antidote 8.96 kg/ha
[19] = Herbicide No.1 0.56 Kg/ha + SUTAN + 8.96 Kg/ha + antidote 2.24 Kg/ha
[20] = Herbicide No.1 0.56 Kg/ha + SUTAN + 8.96 Kg/ha + antidote 8.96 Kg/ha
[21] = Herbicide No.1 1.12 Kg/ha + SUTAN + 8.96 Kg/ha + antidote 2.24 Kg/ha
[22] = Herbicide No.1 1.12 Kg/ha + SUTAN + 8.96 Kg/ha + antidote 8.96 Kg/ha
[23] = Herbicide No.1 0.14 + No.12 3.36 kg/ha + antidote 2.24 kg/ha
[24] = Herbicide No.1 0.14 + No.12 3.36 kg/ha + antidote 8.96 kg/ha
[25] = Herbicide No.1 0.56 + No.12 3.36 kg/ha + antidote 2.24 kg/ha
[26] = Herbicide No.1 0.56 + No.12 3.36 kg/ha + antidote 8.96 kg/ha

SMILES: COC(=O)c1c(Cl)nn(C)c1S(=O)(=O)NC(=O)Nc1nc(OC)cc(OC)n1 [Herbicide No. 1]
- % Injury Corn (corn [1]; Herbicide No.1 0.56 Kg/ha + SUTAN + 8.96 Kg/ha, no added antidote): 55%
- % Injury Corn (corn [1]; Herbicide No.1 0.56 Kg/ha alone): 60%
- % Injury Corn (corn [1]; Herbicide No.1 1.12 Kg/ha + SUTAN + 8.96 Kg/ha, no added antidote): 60%
- % Injury Corn (corn [1]; Herbicide No.1 1.12 Kg/ha alone): 65%
- inhibition at 140 g/ha ([2]; read-out: % Inhibition VL, Table 23A, Herb. No. 1 0.14 Kg/Ha, no antidote): 90%
- inhibition at 280 g/ha ([2]; read-out: % Inhibition VL, Table 23A, Herb. No. 1 0.28 Kg/Ha, no antidote): 90%
- inhibition at 560 g/ha ([2]; read-out: % Inhibition VL, Table 23A, Herb. No. 1 0.56 Kg/Ha, no antidote): 95%
- inhibition at 1120 g/ha ([2]; read-out: % Inhibition VL, Table 23A, Herb. No. 1 1.12 Kg/Ha, no antidote): 95%
- inhibition at 140 g/ha ([2]; read-out: % Inhibition VL, Table 23B, Herb. No. 1 0.14 Kg/Ha, no antidote): 85%
- inhibition at 280 g/ha ([2]; read-out: % Inhibition VL, Table 23B, Herb. No. 1 0.28 Kg/Ha, no antidote): 95%
- inhibition at 560 g/ha ([2]; read-out: % Inhibition VL, Table 23B, Herb. No. 1 0.56 Kg/Ha, no antidote): 90%
- inhibition at 1120 g/ha ([2]; read-out: % Inhibition VL, Table 23B, Herb. No. 1 1.12 Kg/Ha, no antidote): 90%
- inhibition at 140 g/ha ([3]; read-out: % Inhibition GFT, Table 23A, Herb. No. 1 0.14 Kg/Ha, no antidote): 25%
- inhibition at 280 g/ha ([3]; read-out: % Inhibition GFT, Table 23A, Herb. No. 1 0.28 Kg/Ha, no antidote): 35%
- inhibition at 560 g/ha ([3]; read-out: % Inhibition GFT, Table 23A, Herb. No. 1 0.56 Kg/Ha, no antidote): 60%
- inhibition at 1120 g/ha ([3]; read-out: % Inhibition GFT, Table 23A, Herb. No. 1 1.12 Kg/Ha, no antidote): 80%
- inhibition at 140 g/ha ([3]; read-out: % Inhibition GFT, Table 23B, Herb. No. 1 0.14 Kg/Ha, no antidote): 30%
- inhibition at 280 g/ha ([3]; read-out: % Inhibition GFT, Table 23B, Herb. No. 1 0.28 Kg/Ha, no antidote): 30%
- inhibition at 560 g/ha ([3]; read-out: % Inhibition GFT, Table 23B, Herb. No. 1 0.56 Kg/Ha, no antidote): 60%
- inhibition at 1120 g/ha ([3]; read-out: % Inhibition GFT, Table 23B, Herb. No. 1 1.12 Kg/Ha, no antidote): 70%
- inhibition at 140 g/ha (corn [4]; [9]): 15%
- inhibition at 280 g/ha (corn [4]; [9]): 25%
- inhibition at 560 g/ha (corn [4]; [9]): 50%
- inhibition at 1120 g/ha (corn [4]; [9]): 65%
- inhibition at 140 g/ha (corn [4]; [10]): 10%
- inhibition at 280 g/ha (corn [4]; [10]): 25%
- inhibition at 560 g/ha (corn [4]; [10]): 40%
- inhibition at 1120 g/ha (corn [4]; [10]): 60%
- % Injury Corn (corn [5]; [11]): 20%
- % Injury Corn (corn [5]; [12]): 0%
- % Injury Corn (corn [5]; [13]): 10%
- % Injury Corn (corn [5]; [14]): 30%
- % Injury BYG [6, 11]: 100%
- % Injury BYG [6, 12]: 35%
- % Injury BYG [6, 13]: 75%
- % Injury BYG [6, 14]: 100%

SMILES: C=CCN(CC=C)C(=O)C(Cl)Cl [compound 1]
- % Injury BYG [7, 15]: 90%
- % Injury BYG [7, 16]: 90%
- % Injury BYG [7, 17]: 90%
- % Injury BYG [7, 18]: 85%
- % Injury VL [8, 15]: 85%
- % Injury VL [8, 16]: 85%
- % Injury VL [8, 17]: 75%
- % Injury VL [8, 18]: 75%
- % Injury Corn (corn [1]; [19]): 45%
- % Injury Corn (corn [1]; [20]): 60%
- % Injury Corn (corn [1]; [21]): 50%
- % Injury Corn (corn [1]; [22]): 55%
- % Injury Corn (corn [5]; [23]): 0%
- % Injury Corn (corn [5]; [24]): 0%
- % Injury Corn (corn [5]; [25]): 0%
- % Injury Corn (corn [5]; [26]): 10%
- % Injury BYG [6, 23]: 100%
- % Injury BYG [6, 24]: 100%
- % Injury BYG [6, 25]: 100%
- % Injury BYG [6, 26]: 100%

SMILES: O=C1OC(=O)c2cccc3cccc1c23 [compound 2]
- % Injury BYG [7, 15]: 93%
- % Injury BYG [7, 16]: 85%
- % Injury BYG [7, 17]: 85%
- % Injury BYG [7, 18]: 95%
- % Injury VL [8, 15]: 80%
- % Injury VL [8, 16]: 93%
- % Injury VL [8, 17]: 70%
- % Injury VL [8, 18]: 75%
- % Injury Corn (corn [1]; [19]): 45%
- % Injury Corn (corn [1]; [20]): 55%
- % Injury Corn (corn [1]; [21]): 40%
- % Injury Corn (corn [1]; [22]): 50%
- % Injury Corn (corn [5]; [23]): 0%
- % Injury Corn (corn [5]; [24]): 0%
- % Injury Corn (corn [5]; [25]): 10%
- % Injury Corn (corn [5]; [26]): 15%
- % Injury BYG [6, 23]: 100%
- % Injury BYG [6, 24]: 100%
- % Injury BYG [6, 25]: 100%
- % Injury BYG [6, 26]: 100%

SMILES: O=C(C(Cl)Cl)N1CCOC12CCCCC2 [compound 7]
- % Injury BYG [7, 15]: 90%
- % Injury BYG [7, 16]: 85%
- % Injury BYG [7, 17]: 85%
- % Injury BYG [7, 18]: 85%
- % Injury VL [8, 15]: 75%
- % Injury VL [8, 16]: 80%
- % Injury VL [8, 17]: 70%
- % Injury VL [8, 18]: 75%
- % Injury Corn (corn [1]; [19]): 45%
- % Injury Corn (corn [1]; [20]): 50%
- % Injury Corn (corn [1]; [21]): 65%
- % Injury Corn (corn [1]; [22]): 50%
- % Injury Corn (corn [5]; [23]): 10%
- % Injury Corn (corn [5]; [24]): 10%
- % Injury Corn (corn [5]; [26]): 15%
- % Injury BYG [6, 23]: 100%
- % Injury BYG [6, 24]: 100%
- % Injury BYG [6, 25]: 100%
- % Injury BYG [6, 26]: 100%
